Source: the supplement of paper PMC10307832

How the values were obtained:
Test in all cases: relative viability (nuclei count vs DMSO), 5 days (fraction); higher = more cells survive
[1] = compound: N#CC[C@H](C1CCCC1)n1cc(-c2ncnc3[nH]ccc23)cn1 [Ruxolitinib] + CC(=O)c1c(C)c2cnc(Nc3ccc(N4CCNCC4)cn3)nc2n(C2CCCC2)c1=O [Palbociclib] (partner 0.5 µM)
Method in brief: (§1)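 Relative viability is defined as nuclei in treated wells over nuclei in vehicle wells. Duplicate plates were run and medians reported. Lung cancer cell lines in 1536-well plates were dosed by pin tool one day after seeding, with one drug or with a fixed anchor-drug dose plus five library-drug doses (not always all listed) in √10 steps, and nuclei were counted after 5 days.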

Vismodegib + Pictilisib = compound: CS(=O)(=O)c1ccc(C(=O)Nc2ccc(Cl)c(-c3ccccn3)c2)c(Cl)c1 [Vismodegib] + CS(=O)(=O)N1CCN(Cc2cc3nc(-c4cccc5[nH]ncc45)nc(N4CCOCC4)c3s2)CC1 [Pictilisib] (partner 1 µM)
Method in brief: as §1

Ruxolitinib + Linsitinib = compound: N#CC[C@H](C1CCCC1)n1cc(-c2ncnc3[nH]ccc23)cn1 [Ruxolitinib] + C[C@]1(O)C[C@@H](c2nc(-c3ccc4ccc(-c5ccccc5)nc4c3)c3c(N)nccn32)C1 [Linsitinib] (partner 1 µM)
Method in brief: as §1

Vismodegib + Navitoclax = compound: CS(=O)(=O)c1ccc(C(=O)Nc2ccc(Cl)c(-c3ccccn3)c2)c(Cl)c1 [Vismodegib] + CC1(C)CCC(c2ccc(Cl)cc2)=C(CN2CCN(c3ccc(C(=O)NS(=O)(=O)c4ccc(N[C@H](CCN5CCOCC5)CSc5ccccc5)c(S(=O)(=O)C(F)(F)F)c4)cc3)CC2)C1 [Navitoclax] (partner 0.5 µM)
Method in brief: as §1

**Q.** For UMC-11, which relative viability ([1]; first compound 0.08 µM) is on record?
**A.** 0.345

**Q.** And the relative viability ([1]; first compound 0.253 µM)?
**A.** 0.399

**Q.** What about the relative viability ([1]; first compound 0.8 µM) of the same cell line?
**A.** 0.329

**Q.** What about the relative viability ([1]; first compound 2.53 µM) of the same cell line?
**A.** 0.366

**Q.** And the relative viability ([1]; first compound 8 µM)?
**A.** 0.362

**Q.** And the relative viability (Vismodegib + Pictilisib; first compound 0.08 µM)?
**A.** 0.727

**Q.** And the relative viability (Vismodegib + Pictilisib; first compound 0.253 µM)?
**A.** 0.703

**Q.** And the relative viability (Vismodegib + Pictilisib; first compound 0.8 µM)?
**A.** 0.738

**Q.** What about the relative viability (Vismodegib + Pictilisib; first compound 2.53 µM) of the same cell line?
**A.** 0.75

**Q.** What about the relative viability (Vismodegib + Pictilisib; first compound 8 µM) of the same cell line?
**A.** 0.271

**Q.** What about the relative viability (Ruxolitinib + Linsitinib; first compound 0.08 µM) of the same cell line?
**A.** 1.03

**Q.** And the relative viability (Ruxolitinib + Linsitinib; first compound 0.253 µM)?
**A.** 1.08

**Q.** What about the relative viability (Ruxolitinib + Linsitinib; first compound 0.8 µM) of the same cell line?
**A.** 1.08

**Q.** And the relative viability (Ruxolitinib + Linsitinib; first compound 2.53 µM)?
**A.** 1.11

**Q.** What about the relative viability (Ruxolitinib + Linsitinib; first compound 8 µM) of the same cell line?
**A.** 0.96

**Q.** And the relative viability (Vismodegib + Navitoclax; first compound 0.08 µM)?
**A.** 0.321

**Q.** And the relative viability (Vismodegib + Navitoclax; first compound 0.253 µM)?
**A.** 0.313

**Q.** What about the relative viability (Vismodegib + Navitoclax; first compound 0.8 µM) of the same cell line?
**A.** 0.296

**Q.** What about the relative viability (Vismodegib + Navitoclax; first compound 2.53 µM) of the same cell line?
**A.** 0.29

**Q.** And the relative viability (Vismodegib + Navitoclax; first compound 8 µM)?
**A.** 0.305
